Assay results as given in ChEMBL document CHEMBL1201862, “PubChem BioAssay data set” (2004).
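Cultured in 96-well plates, cells were exposed to test compound for 48 hours across five concentrations. Abbreviation: GI50, concentration required for 50% inhibition of growth.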 The source made the active and inactive calls. Cut-off read from the data, not from the text of the source: active = GI50 up to about 1.1 µM and inactive = higher.

Key:
Assay in all cases: DTP human tumour cell line panel, 48 h
ACHN = system: ACHN
COLO 205 = system: COLO 205
EKVX = system: EKVX
HCC 2998 = system: HCC 2998
KM-20L2 = system: KM-20L2
Malme-3M = system: Malme-3M
NCI-H460 = system: NCI-H460
NCI-H522 = system: NCI-H522
OVCAR-3 = system: OVCAR-3
OVCAR-4 = system: OVCAR-4
RPMI-8226 = system: RPMI-8226
SK-MEL-2 = system: SK-MEL-2
SN12C = system: SN12C
U-251 = system: U-251
UO-31 = system: UO-31
CCRF-CEM = system: CCRF-CEM
IGROV-1 = system: IGROV-1
MCF7 = system: MCF7
MDA-MB-231 = system: MDA-MB-231
PC-3 = system: PC-3

| SMILES | GI50 (ACHN) | GI50 (COLO 205) | GI50 (EKVX) | GI50 (HCC 2998) | GI50 (KM-20L2) | GI50 (Malme-3M) | GI50 (NCI-H460) | GI50 (NCI-H522) | GI50 (OVCAR-3) | GI50 (OVCAR-4) | GI50 (RPMI-8226) | GI50 (SK-MEL-2) | GI50 (SN12C) | GI50 (U-251) | GI50 (UO-31) | GI50 (CCRF-CEM) | GI50 (IGROV-1) | GI50 (MCF7) | GI50 (MDA-MB-231) | GI50 (PC-3) |
| --- | --- | --- | --- | --- | --- | --- | --- | --- | --- | --- | --- | --- | --- | --- | --- | --- | --- | --- | --- | --- |
| CCOC(=O)C(c1ccsc1)P(=O)(OCC)OCC (stereo not given) | 19.6 µM (inactive) | 13.3 µM (inactive) | 23.9 µM (inactive) | 19.5 µM (inactive) | 14.5 µM (inactive) | 23.2 µM (inactive) | 14.9 µM (inactive) | 3.89 µM (inactive) | 13.7 µM (inactive) | 28.7 µM (inactive) | 9.4 µM (inactive) | 20 µM (inactive) | 13.3 µM (inactive) | 17.9 µM (inactive) | 15 µM (inactive) | – | – | – | – | – |
| Cc1c2ccccc2cc2ccc3oc([N+](=O)[O-])cc3c12 | 4.73 µM (inactive) | > 100 µM (inactive) | 81.7 µM (inactive) | > 100 µM (inactive) | > 100 µM (inactive) | > 100 µM (inactive) | 6.19 µM (inactive) | – | > 100 µM (inactive) | > 100 µM (inactive) | > 100 µM (inactive) | 5.47 µM (inactive) | > 100 µM (inactive) | > 100 µM (inactive) | > 100 µM (inactive) | > 100 µM (inactive) | > 100 µM (inactive) | – | – | – |
| CC(C)=CCC/C(C)=C/Cc1c(O)c(C)cc2c1[nH]c1cc(O)ccc12 | > 25 µM (inactive) | > 25 µM (inactive) | – | > 25 µM (inactive) | > 25 µM (inactive) | > 25 µM (inactive) | > 25 µM (inactive) | > 25 µM (inactive) | > 25 µM (inactive) | > 25 µM (inactive) | > 25 µM (inactive) | > 25 µM (inactive) | > 25 µM (inactive) | > 25 µM (inactive) | > 25 µM (inactive) | > 25 µM (inactive) | > 25 µM (inactive) | – | – | – |
| Nc1cc2c(c3ccccc13)C(CCl)CN2C(=O)c1cc2cc(NC(=O)Nc3ccc4[nH]c(C(=O)N5CC(CCl)c6c5cc(N)c5ccccc65)cc4c3)ccc2[nH]1 (stereo not given) | < 0.01 µM (active) | 0.687 µM (active) | 1.74 µM (inactive) | 0.259 µM (active) | – | 0.412 µM (active) | < 0.01 µM (active) | 0.0509 µM (active) | 0.467 µM (active) | 1.79 µM (inactive) | 1.4 µM (inactive) | 0.995 µM (active) | 0.0656 µM (active) | 0.0573 µM (active) | 0.0559 µM (active) | < 0.01 µM (active) | 0.256 µM (active) | 0.0284 µM (active) | 0.27 µM (active) | 0.171 µM (active) |
| N#CC(C(=O)C(=O)Nc1ccc(Cl)cc1)c1ccccc1 (stereo not given) | > 100 µM (inactive) | 93.1 µM (inactive) | > 100 µM (inactive) | > 100 µM (inactive) | > 100 µM (inactive) | > 100 µM (inactive) | > 100 µM (inactive) | – | > 100 µM (inactive) | > 100 µM (inactive) | > 100 µM (inactive) | > 100 µM (inactive) | > 100 µM (inactive) | > 100 µM (inactive) | > 100 µM (inactive) | > 100 µM (inactive) | > 100 µM (inactive) | – | – | – |
| COc1ccc(/C=C2\N=C(c3ccccc3)OC2=O)c(OCc2ccccc2)c1 | > 100 µM (inactive) | 84.9 µM (inactive) | > 100 µM (inactive) | > 100 µM (inactive) | > 100 µM (inactive) | 39.4 µM (inactive) | 53 µM (inactive) | 24.6 µM (inactive) | 19 µM (inactive) | 22.1 µM (inactive) | 15.8 µM (inactive) | – | > 100 µM (inactive) | – | > 100 µM (inactive) | 14.3 µM (inactive) | 18.8 µM (inactive) | – | – | – |
| Clc1ccc2c(NCCCCN3OC3c3ccccc3)ccnc2c1 (stereo not given) | 9.44 µM (inactive) | 2.86 µM (inactive) | 21.8 µM (inactive) | 2.89 µM (inactive) | – | 8.41 µM (inactive) | 6.5 µM (inactive) | 6.41 µM (inactive) | 4.45 µM (inactive) | 4.27 µM (inactive) | 2.92 µM (inactive) | 4.79 µM (inactive) | 11.1 µM (inactive) | 3.4 µM (inactive) | 14.8 µM (inactive) | 2.15 µM (inactive) | 9.27 µM (inactive) | 4.29 µM (inactive) | 2.27 µM (inactive) | 13.3 µM (inactive) |
| O=C(Cc1nc2ccccc2o1)C(=O)Nc1cccc(Cl)c1 | > 100 µM (inactive) | > 100 µM (inactive) | > 100 µM (inactive) | > 100 µM (inactive) | > 100 µM (inactive) | > 100 µM (inactive) | > 100 µM (inactive) | > 100 µM (inactive) | > 100 µM (inactive) | > 100 µM (inactive) | – | > 100 µM (inactive) | > 100 µM (inactive) | > 100 µM (inactive) | > 100 µM (inactive) | > 100 µM (inactive) | > 100 µM (inactive) | – | – | – |
| CC1(C)CC(=O)C(/C(=N/NC(=S)NN)C(=O)Nc2nc3ccc([N+](=O)[O-])cc3s2)C(=O)C1 | > 100 µM (inactive) | > 100 µM (inactive) | > 100 µM (inactive) | > 100 µM (inactive) | > 100 µM (inactive) | > 100 µM (inactive) | > 100 µM (inactive) | > 100 µM (inactive) | 67.9 µM (inactive) | > 100 µM (inactive) | – | > 100 µM (inactive) | > 100 µM (inactive) | > 100 µM (inactive) | 89.7 µM (inactive) | 38.2 µM (inactive) | > 100 µM (inactive) | – | – | – |
| O=C(C/C(=N\NC(=O)C[n+]1ccccc1)C(=O)Nc1nc2ccc([N+](=O)[O-])cc2s1)CC(c1ccccc1)c1c(O)c2ccccc2oc1=O (stereo not given) | > 100 µM (inactive) | > 100 µM (inactive) | > 100 µM (inactive) | > 100 µM (inactive) | > 100 µM (inactive) | > 100 µM (inactive) | > 100 µM (inactive) | 99.5 µM (inactive) | > 100 µM (inactive) | > 100 µM (inactive) | > 100 µM (inactive) | > 100 µM (inactive) | > 100 µM (inactive) | – | 67.5 µM (inactive) | > 100 µM (inactive) | > 100 µM (inactive) | – | – | – |
| CC1=C(C(=O)Nc2cc(F)c(F)cc2F)C(c2ccc([N+](=O)[O-])cc2)C(C(=O)Nc2cc(F)c(F)cc2F)=C(C)N1 | 27.1 µM (inactive) | 71.4 µM (inactive) | 13.9 µM (inactive) | 21.4 µM (inactive) | 37.9 µM (inactive) | 27.2 µM (inactive) | 43.9 µM (inactive) | 15.7 µM (inactive) | 19.1 µM (inactive) | 18.5 µM (inactive) | 14 µM (inactive) | 18 µM (inactive) | 40.7 µM (inactive) | 30.7 µM (inactive) | 13.1 µM (inactive) | 16.5 µM (inactive) | 28.2 µM (inactive) | – | – | – |
| Cc1ccc(C(=O)CC2(O)C(=O)Nc3c(C)cc(Cl)cc32)cc1 (stereo not given) | > 100 µM (inactive) | > 100 µM (inactive) | > 100 µM (inactive) | > 100 µM (inactive) | > 100 µM (inactive) | > 100 µM (inactive) | > 100 µM (inactive) | > 100 µM (inactive) | > 100 µM (inactive) | 35.7 µM (inactive) | 43.2 µM (inactive) | > 100 µM (inactive) | > 100 µM (inactive) | > 100 µM (inactive) | > 100 µM (inactive) | > 100 µM (inactive) | – | – | – | – |
| O=C1CCC(=O)C12CCc1ccccc12 | > 100 µM (inactive) | > 100 µM (inactive) | > 100 µM (inactive) | > 100 µM (inactive) | > 100 µM (inactive) | > 100 µM (inactive) | > 100 µM (inactive) | – | > 100 µM (inactive) | > 100 µM (inactive) | – | – | > 100 µM (inactive) | > 100 µM (inactive) | > 100 µM (inactive) | – | > 100 µM (inactive) | – | – | – |
| C=C1c2nc3ccccc3n2C=C(c2ccc(Cl)cc2)N1c1ccc(OCCN2CCCCC2)cc1 | > 45 µM (inactive) | > 45 µM (inactive) | > 45 µM (inactive) | > 100 µM (inactive) | – | 8.41 µM (inactive) | 1.72 µM (inactive) | 14.8 µM (inactive) | > 45 µM (inactive) | > 45 µM (inactive) | 2.43 µM (inactive) | > 45 µM (inactive) | > 45 µM (inactive) | > 45 µM (inactive) | > 45 µM (inactive) | > 45 µM (inactive) | > 45 µM (inactive) | > 45 µM (inactive) | > 45 µM (inactive) | > 45 µM (inactive) |
| O=C(/C=C/c1ccc(O)c(O)c1)OC1C[C@@](O)(C(=O)O)C[C@@H](O)[C@H]1OC(=O)/C=C/c1ccc(O)c(O)c1 (stereo not given in full) | > 100 µM (inactive) | > 100 µM (inactive) | > 100 µM (inactive) | > 100 µM (inactive) | 37.1 µM (inactive) | > 100 µM (inactive) | > 100 µM (inactive) | > 100 µM (inactive) | > 100 µM (inactive) | > 100 µM (inactive) | > 100 µM (inactive) | > 100 µM (inactive) | – | > 100 µM (inactive) | > 100 µM (inactive) | > 100 µM (inactive) | > 100 µM (inactive) | – | – | – |
| COC(=O)C1=Cc2cc3c(cc2[C@H](c2ccc4c(c2)OCO4)C1C(=O)OC)OCO3 (stereo not given in full) | 43.9 µM (inactive) | 37.8 µM (inactive) | 46.8 µM (inactive) | > 100 µM (inactive) | > 100 µM (inactive) | > 100 µM (inactive) | 89.9 µM (inactive) | – | 44.9 µM (inactive) | 61.9 µM (inactive) | > 100 µM (inactive) | – | > 100 µM (inactive) | 61.4 µM (inactive) | > 100 µM (inactive) | > 100 µM (inactive) | 1.73 µM (inactive) | – | – | – |
